The subject of assay [1] is nitric oxide (NO) production from RAW macrophages. The assay can be described thus: Griess assay for NO production by LPS-stimulated RAW macrophages. To be noted: for NO production (relative to control), mean ± SE: LPS 1 μg/mL, 24 hours, n = 8, % of control; for IC50: read-out: IC50, inhibition of NO production. The assay is classed as cell-based, murine. The procedure:
RAW 264.7 murine monocyte/macrophages (ATCC TIB-71) were maintained in Dulbecco's Modified Eagle Medium (D-MEM, Invitrogen Corp., Carlsbad, Calif.) supplemented with 10% fetal bovine serum (FBS, Invitrogen Corp., Carlsbad, Calif.) and 1% streptomycin and were kept in a humidified 37° C. incubator with 5% CO2. Cells were subcultured by scraping when plates reached 90% confluency with a 1:5 ratio.
Down-regulation of various pro-inflammatory genes including iNOS, IL1β, and TNF-α can reduce nitric oxide production by macrophages. In order to confirm that changes in pro-inflammatory gene expression were affecting cellular function, the Griess assay was performed to indirectly measure nitric oxide production by LPS-induced macrophages by measuring nitrite (Misko et al., 1993). For the assay, RAW cells were plated in a 24-well plate at a minimum density of 0.4×10^6 cells/well and grown for 24 hours. A stock solution of AL-1 was created by completely dissolving dry extract as in Example 1 in 95% ethanol. Cells were stimulated with 1 μg/mL LPS with simultaneous addition of AL-1 (10-100 μg/mL), aspirin (10 mM), or vehicle control (0.5% ethanol), maintaining a final concentration of 0.5% ethanol for every treatment. After 24 hours, conditioned media (50 μl) was removed and immediately mixed with 100 μl of Griess reagent (10% sulfanilamide, 1% naphthalene-ethylenediamine dihydrochloride in 5% H3PO4, all from Sigma, St. Louis, Mo.). After incubation for 15 minutes at room temperature, the samples were read at 550 nm using a microplate spectrophotometer (Molecular Devices, Sunnyvale, Calif.). Data for each treatment were normalized based on results from an MTS cell proliferation assay.
A CellTiter 96 assay kit (Promega Corp. Madison, Wis.) was used to determine the relative number of viable cells remaining after incubation with treatments. For the assay, old media containing treatments or controls was removed from the 96-well plates and replaced with 100 μL fresh media per well. Next, 20 μL MTS/PMS reagent ([3-(4,5-dimethylthiazol-2-yl)-5-(3-carboxymethoxyphenyl)-2-(4-sulfophenyl)-2H-tetrazolium plus phenazine methosulfate) was added to each well followed by a three hour incubation period at 37° C., 5% CO2. Plates were read using a microplate reader (Molecular Devices, Sunnyvale, Calif.) at 490 nm. A blank row corrected for background noise and data was expressed as a percent of the LPS control. Each treatment was tested on three different plates with 8 wells on each plate for a total of 24 wells.
(In general: The Griess reaction detects nitrite, a stable product of nitric oxide.)

A further assay concerns the target T1, COX-2 (Ovis aries, UniProt P79208).
T1 construct: purchased Cayman Chemical Company
T1 sequence (P79208 17-603): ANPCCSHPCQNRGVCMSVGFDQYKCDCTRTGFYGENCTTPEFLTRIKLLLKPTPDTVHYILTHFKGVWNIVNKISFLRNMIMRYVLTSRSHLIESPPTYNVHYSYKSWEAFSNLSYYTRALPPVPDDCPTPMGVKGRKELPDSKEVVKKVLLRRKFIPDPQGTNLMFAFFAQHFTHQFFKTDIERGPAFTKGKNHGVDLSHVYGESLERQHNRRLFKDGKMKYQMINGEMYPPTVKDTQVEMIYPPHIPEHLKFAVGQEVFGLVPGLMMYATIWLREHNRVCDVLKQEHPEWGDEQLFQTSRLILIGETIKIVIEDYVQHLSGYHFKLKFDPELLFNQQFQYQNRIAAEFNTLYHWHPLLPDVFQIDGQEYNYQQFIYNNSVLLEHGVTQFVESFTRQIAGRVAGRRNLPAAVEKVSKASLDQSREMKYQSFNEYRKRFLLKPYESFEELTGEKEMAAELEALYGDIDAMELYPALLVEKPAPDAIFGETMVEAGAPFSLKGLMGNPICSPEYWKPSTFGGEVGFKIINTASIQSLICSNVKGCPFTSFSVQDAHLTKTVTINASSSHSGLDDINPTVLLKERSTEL
The assay can be described thus: Colorimetric COX inhibitor screening assay, COX-2. Format: biochemical, ovine. The procedure: An ovine COX inhibitor screening assay (Cayman Chemical Company, Ann Arbor, Mich.) was used to measure inhibition of purified COX-1 and COX-2. This assay measures the peroxidase component of cyclooxygenases colorimetrically by monitoring the appearance of oxidized N,N,N′,N′-tetramethyl-p-phenylenediamine (TMPD) at 590 nm. Tablets of Vioxx (rofecoxib; Merck & Co., Inc., Whitehouse Station, N.J.) were ground and dissolved in methanol (1 mg/mL) to use as a positive control. AL-1, leukomisin, and austricin were also dissolved in methanol at 1 mg/mL. The assay was performed following manufacturer instructions. Vioxx, vehicle (100% initial activity), or treatments were added to a 96-well plate along with 180 μL assay mixture provided by the manufacturer containing 150 μL assay buffer, 10 μL heme, and 10 μL enzyme (COX-1 or COX-2). A background correction row received no enzyme and 10 μL additional assay buffer. After 5 min incubation at room temp, 20 μL of a colorimetric substrate solution containing TMPD and 20 μL arachadonic acid diluted in assay buffer were added to the plate. The plate was incubated for 5 min and the absorbance was read at 590 nm using a microplate reader (Molecular Devices, Sunnyvale, Calif.). To calculate percent inhibition, average absorbance was calculated for each sample (n=3). The background blank well absorbance was subtracted from each sample.
[(100% Initial activity-Blank)−(Treatment-Blank)/(100% Initial activity-Blank)]*100

Setting [2] is: read-out: percent inhibition of COX-2 enzyme activity, mean ± SE.

≈ marks a conversion by molar mass, not a printed value. Where “and” joins values, the source holds several entries; their conditions need not be identical. Equal values may be shown once. Read-outs that look alike come from different tables or passages of the source.

Turning to `CC1=CC(=O)C2=C(C)C[C@H](O)[C@@H]3[C@H](OC(=O)[C@H]3C)[C@@H]12` (single isomer, unassigned) [austricin], the “NO production (relative to control), mean ± SE” value was found to be 89 ± 1 % in assay [1] (20 μg/ml), 89 ± 1 % in assay [1] (50 μg/ml) and 84 ± 2 % in assay [1] (100 μg/ml). Besides, the IC50 (as a rule, the concentration at which inhibition is half-maximal) in assay [1] (Mus musculus, Macrophage) was 440 µg/mL and 1.68 mM; against COX-2 (IC50, COX-2 inhibition, purified ovine COX-2) it was 1970 µM; against COX-2 (IC50, COX-2 inhibition, purified ovine COX-2, molar value in brackets) it was 2000 µM. At COX-2 (setting [2]), the inhibition (in general, the drop in the measured response relative to a control, in per cent) at 45 µg/mL is 19 ± 1%. The inhibition at 115 µg/mL at COX-2 (setting [2]) was 29 ± 2%. Further, on COX-2 (setting [2]), the inhibition at 225 µg/mL came to 31 ± 1%.

On to `CC1=CC(=O)C2=C(C)CC[C@@H]3[C@H](OC(=O)[C@H]3C)[C@@H]12` [leukomisin], for which the figures for the “NO production (relative to control), mean ± SE” value in assay [1] (20 μg/ml), in assay [1] (50 μg/ml) and in assay [1] (100 μg/ml) were 82 ± 4 %, 72 ± 1 % and 64 ± 2 %, respectively. Also, the “IC50, inhibition of NO production” value in assay [1] (RAW macrophages elicited with LPS) was determined as 160 µg/mL. Further, the half-maximal inhibitory concentration (IC50) in assay [1] (RAW macrophages elicited with LPS, molar value in brackets) was 650 µM; at COX-2 (purified ovine COX-2, read-out: IC50, COX-2 inhibition), 524 µM. In addition, the “percent inhibition of COX-2 enzyme activity, mean ± SE” value on COX-2 (45 μg/ml) was 34 ± 1%; on COX-2 (115 μg/ml) it was 51 ± 3%; on COX-2 (225 μg/ml) it was 65 ± 5%. Besides, the “IC50, COX-2 inhibition” value at COX-2 (purified ovine COX-2) is 129 µg/mL (≈ 524 µM).

The values above are taken from US20080145465A1, “Sesquiterpene lactone extract from artemisia leucodes for reducing inflammation and down-regulating pro-inflammatory gene expression” (priority 2006, published 2008).
